Structures are written as SMILES. Activity calls are given as the source filed them. No rule for the calls is given here. Some results are limits rather than exact numbers.

The test system of this test is Saccharomyces cerevisiae lifespan extension, no nicotinamide. Briefly: yeast lifespan extension without nicotinamide, confirmation, yeast lifespan extension project, S. cerevisiae (AID 812).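 Also: growth read as optical density after 42 hours of incubation at 30C.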
On to `O=c1c(-c2ccc(Cl)cc2)[n+]([O-])c2ccccc2n1OCc1ccccn1`, for which the EC50 is > 40 µM (inactive). With `Cc1ccc(C(=O)OC2=CC(=O)CC(C)(C)C2)cc1` the figure was > 40 µM (inactive); with `COc1ccc(/C=C(/C(=O)c2ccc(Cl)cc2Cl)n2cncn2)cc1`, > 40 µM (inactive); with `CCCn1c(SCC(=O)c2ccc3c(c2)NC(=O)CO3)nc2ccccc21`, > 40 µM (inactive).

On to `Cc1cc2c(c(=O)n1CCc1ccccc1)C(c1ccco1)C(C#N)=C(N)O2` (configuration not stated), for which the EC50 is > 40 µM (inactive).

In the case of `CCCC(=Nc1ccc(N)cc1)C1=C(O)C(C(=O)OC)C(C)(C)CC1=O` (configuration not stated), the EC50 is > 40 µM (inactive). For `COc1cc(OC)cc(-c2nc3ccccc3c(=O)n2OC(=O)c2ccccc2C)c1`, the EC50 is > 40 µM (inactive).

In the case of `CCOC(=O)CS(=O)(=O)c1nc(-c2ccc(F)cc2)cc(C(F)(F)F)n1`, the EC50 is > 40 µM (inactive).

For the compound `Cc1ccc(/C(O)=C2\C(=O)C(=O)N(c3cc(C)on3)C2c2cccc(Cl)c2)cc1` (configuration not stated), the EC50 was > 40 µM (inactive). Regarding `O=C(Cn1nc(Cl)nc1Cl)c1cc2ccccc2oc1=O`, the EC50 is > 40 µM (inactive). As for `CCn1c(=O)c2c(O)cc(=O)oc2c2ccccc21`, the EC50 is > 40 µM (inactive). As to `CC1CCCN(c2nc3ccccc3nc2C(C#N)C(=O)OC2CCCCC2)C1` (configuration not stated), the EC50 is > 40 µM (inactive).

For the compound `Cc1nc2c(=O)n(C)c(=O)n(C)c2nc1Cl`, the EC50 was > 40 µM (inactive). `CCc1[nH]nc2c1C(c1ccc(Br)s1)C(C#N)=C(N)O2` (configuration not stated): the EC50 is > 40 µM (inactive). As for `O=C(Oc1ccc([N+](=O)[O-])cc1)c1ccc2ccccc2n1`, the figure is > 40 µM (inactive); as for `O=[N+]([O-])c1cc2oc3c(c2c(C=NCc2ccncc2)c1O)CCCC3`, > 40 µM (inactive). Take `CC1(C)CC(=O)C(C(=O)Cc2ccccc2[N+](=O)[O-])C(=O)C1`: the EC50 was > 40 µM (inactive). With `CCC1CCCCN1S(=O)(=O)c1ccc(S(=O)(=O)N(Cc2cccs2)C2CC2)cc1` (configuration not stated) the figure was > 40 µM (inactive); with `CCCC(=O)Nc1ccccc1Sc1ncnc2scc(-c3ccccc3)c12`, > 40 µM (inactive).

With `CC(C)CN=C(NS(=O)(=O)c1ccccc1)C(Cl)(Cl)Cl`, the EC50 was > 40 µM (inactive). As for `O=C(NC(=S)NNS(=O)(=O)c1ccccc1)c1ccc([N+](=O)[O-])cc1`, the EC50 was > 40 µM (inactive).

With `Oc1ccc2ccccc2c1C=Nc1ccccc1-c1nc2ccccc2[nH]1`, the EC50 was > 40 µM (inactive).

For `O=C(O)CCCCCN1C(=O)/C(=C\c2ccncc2)SC1=S`, the EC50 was > 40 µM (inactive). With `C=C(CC)C(=O)c1ccc(OCC(=O)O)c(Cl)c1Cl` the figure was > 40 µM (inactive). `Cn1c(=O)c2c(nc(Br)n2Cc2ccc3ccccc3c2)n(C)c1=O`: the EC50 is > 40 µM (inactive). As for `Cc1ccc(N/C(C(Cl)=C(Cl)Cl)=C(/Cl)[N+](=O)[O-])c(C)c1`, the figure is > 40 µM (inactive). Consider `Cc1ccc(C(=O)NNC(=S)NC(=O)c2ccc(Cl)cc2)cc1`, for which the EC50 is > 40 µM (inactive). Take `CC(C)C(OC(=O)CN1C(=O)COc2ccccc21)C(=O)NC1CCCC1` (configuration not stated): the EC50 is > 40 µM (inactive).

Take `CC1C/C(=C\c2cccnc2)C(=O)/C(=C/c2cccnc2)C1` (configuration not stated): the EC50 was > 40 µM (inactive). On to `Cc1cc(N2C(=O)CC(Cc3ccccc3)C2=O)no1` (configuration not stated), for which the EC50 was > 40 µM (inactive).

Consider `CC(C)n1c(=O)c2c(O)cc(=O)oc2c2ccccc21`, for which the EC50 is > 40 µM (inactive). `COc1ccc2c(=O)c3c(=O)n(Cc4ccco4)c(-c4ccc(C)cc4)nc3oc2c1`: the EC50 was > 40 µM (inactive). For the compound `CCCC[n+]1c(-c2ccc(Cl)cc2Cl)csc1Nc1ccccc1`, the EC50 was > 40 µM (inactive). Turning to `CC[n+]1c(/C=C2\C=C(C)CC(C)(C)C2)sc2ccccc21`, the EC50 is > 40 µM (inactive). With `Cc1ccc2[nH]c(=O)c(CN(CCO)Cc3nnnn3CCc3ccccc3)cc2c1` the figure was > 40 µM (inactive). Take `Cc1cc(C)n2cc(CSc3nnc(N)s3)nc2n1`: the EC50 is > 40 µM (inactive).

Turning to `O=C1CC(c2ccccc2)CC(O)=C1C=NCCN1CCN(C(=O)Nc2ccccc2)CC1` (configuration not stated), the EC50 was > 40 µM (inactive). Turning to `Cc1ccnc(SCc2cc(=O)c(OC(=O)c3ccco3)co2)n1`, the EC50 is > 40 µM (inactive). Turning to `COc1cc(/C=c2\sc3nc(-c4ccncc4)nn3c2=O)ccc1OC(C)=O`, the EC50 is > 40 µM (inactive). As for `Cc1nc(SC(C)C)[nH]c(=O)c1Cc1ccccc1`, the figure is > 40 µM (inactive); as for `O=C(NNC1=Nc2cccc3cccc1c23)c1ccccc1Br`, > 40 µM (inactive); as for `CN1C(=O)C(C(=O)Nc2ccccc2F)c2ccccc21` (configuration not stated), > 40 µM (inactive). Take `CCOC(=O)CSC1=NC(=O)/C(=C/c2ccc(OC)cc2)S1`: the EC50 was > 40 µM (inactive). As for `CCOC(=O)CCS(=O)(=O)c1nc(-c2ccccc2)cc(C(F)(F)F)n1`, the figure is > 40 µM (inactive); as for `COC(=O)c1sc(S(=O)(=O)Nc2ccc(Br)cc2)c(C(=O)OC)c1C`, > 40 µM (inactive); as for `O=C1/C(=C\c2cccnc2)CN(Cc2ccccc2)C/C1=C\c1cccnc1`, > 40 µM (inactive). With `COc1ccc(OC)c(NC(=S)N2CCN(C/C=C/c3ccccc3)CC2)c1`, the EC50 is > 40 µM (inactive). With `CCc1ccc(CC2S/C(=C(\C#N)C(C)=O)NC2=O)cc1` (configuration not stated), the EC50 was > 40 µM (inactive).

As for `Cc1ccc(N2NC(=O)/C(=C\c3cc4c(cc3[N+](=O)[O-])OCO4)C2=O)cc1C`, the EC50 was > 40 µM (inactive). As to `CCN1C(=O)C(=Cc2ccc(C)s2)C(=O)N(CC)C1=S`, the EC50 is > 40 µM (inactive).

As to `Cc1cc(NS(=O)(=O)c2ccc(CC(C)C)cc2)no1`, the EC50 is > 40 µM (inactive). As for `CC(C)c1noc2ncc(C(=O)c3cc(Cl)cc(Cl)c3O)cc12`, the figure is > 40 µM (inactive); as for `O=C1c2ccccc2NC(c2ccc(Cl)cc2Cl)N1O` (configuration not stated), > 40 µM (inactive). For the compound `O=C(Oc1ccc2c(c1)OCO2)C12CC3CC(CC(C3)C1)C2`, the EC50 was > 40 µM (inactive). With `O=C(N/N=C/c1ccc(F)cc1)c1c(O)c2ccccc2[nH]c1=O`, the EC50 was > 40 µM (inactive).

In the case of `Cc1cc(C(=O)CN2C(=O)NC(C)(CC(C)C)C2=O)c(C)n1-c1ccc2c(c1)OCO2` (configuration not stated), the EC50 is > 40 µM (inactive). For `COc1ccc(-c2cc(C(F)(F)F)nc(S(C)(=O)=O)n2)cc1OC`, the EC50 was > 40 µM (inactive). With `Cc1cccc(N2C(=O)/C(=C\c3ccc(OC(F)F)cc3)c3ccccc3C2=O)c1`, the EC50 was > 40 µM (inactive). As to `O=C(Oc1cc(=O)n2ccccc2n1)c1ccccc1`, the EC50 was > 40 µM (inactive). Consider `CCCc1nc2c(c(=O)c3ccccc3n2C)c(=O)n1C1CCCCCC1`, for which the EC50 was > 40 µM (inactive). With `CNC(=S)NC1CC2CCCC(C1)N2Cc1ccco1` (configuration not stated), the EC50 was > 40 µM (inactive). On to `C=C1C(=O)C=C2CN(C(=O)c3ccccc3)[C@@](Cc3ccc(F)cc3)(C(=O)OC)[C@@H]12`, for which the EC50 was > 40 µM (inactive).

(Values after PubChem BioAssay AID812 (SRMLSC, 2007).)
